In patent publication US8147883B1, “Use of a plant oil product as an agent for increasing the synthesis of skin lipids” (Laboratoires Expanscience, priority 1999, dated 2012):
Values joined by “and” are separate entries in the source; they are usually repeats but may differ in a detail not shown here. Identical values can stand only once. Marks after values point to notes of the source that are not given here.

Assays:
[1] = test system: disks of whole human skin; test: Neosynthesis of the total epidermal lipids (14C-acetate incorporation) in organotypical model of whole human skin in culture; type: cell-based; conditions: incubation 18 hours
Protocol: (§1) The study is performed in vitro in an organotypical model of whole human skin in culture. Two techniques successively used: • measurement of the incorporation of acetate radiolabeled with carbon 14 into the neosynthesized epidermal lipids in toto; • analysis by thin layer chromatography to separate the main classes of neosynthesized radiolabeled epidermal lipids.
(§2) A fragment of human skin was collected after an abdominal plastic surgery-operation. This was performed on a person (subject I0129). Skin disks 8 mm in diameter were cut out using a sample punch.
(§3) The skin disks are placed in gondolas. The gondolas are placed in culture wells containing MCF medium, composed of MEM/M199 medium (3/4, 1/4; v/v) supplemented with penicillin (50 IU/ml), streptomycin (50 μg/ml), sodium bicarbonate (0.2%, w/v) and FCS (2%, v/v).
(§4) The test products are tested undiluted. They are placed at the center of each human skin disk, in a proportion of 10 mg/cm^2. The incubation medium for the human skin disks (MIF medium) is composed of MCF medium containing 1 μCi/ml of acetate labeled with carbon 14 (Amersham, specific activity: 57 mCi/mmol).
(§5) The lactic acid is used in topical application (10 mg/cm^2).
(§6) The human skin disks are incubated in the presence of the test products and the reference products for 18 hours at 37° C. in a humid atmosphere containing 5% CO2.
(§7) Each experimental condition is performed in quadruplicate.
At the end of the incubation, the human skin disks are rinsed thoroughly with PBS buffer. The epidermis of each skin disk is dissociated from the dermis by means of a controlled heat shock (MilliQ water, 2 min, 62° C.) The epidermises thus dissociated are digested with trypsin (ICN, 1%, w/v) overnight at 37° C. The cell dissociation is facilitated by the action of ultrasound. […]
The radioactivity of each sample, corresponding to the amount of acetate incorporated into the neosynthesized lipids, is measured by liquid scintillation. […]

[2] = test system: disks of whole human skin; test: Nature of the neosynthesized epidermal lipids (thin layer chromatography of 14C-labeled lipids) in whole human skin disks; type: cell-based; design: neosynthesis of cholesteryl sulfate, percentage of the control group: concentration or dose not given beside the values
Protocol: as §1, §2, §3, §4, §5, §6, §7
Starting with the samples of extracted lipids, 20 μl aliquots, corresponding to 3 700 cpm, are placed on silica 60 (Merck) chromatography plates. These plates are developed in three successive solvents: • 38/2/10 chloroform/acetone/methanol (v/v/v), • 40/5/5 chloroform/acetone/methanol (v/v/v), • 36/10/3/1 chloroform/ethyl acetate/ether/methanol (v/v/v/v).
This system makes it possible to separate the cholesteryl sulfate, the cerebrosides, the ceramides, the cholesterol and the tri-+diglycerides. The most polar lipids, referred to hereinbelow as “polar lipids”, remain on the base line.
The silica plates are then placed in exposure with films for autoradiography for 15 days (Amersham, Hyperfilm beta max).
The position of the various classes of lipids—polar lipids, cholesteryl sulfate, cerebrosides, ceramides 1 and 2, cholesterol and tri-+diglycerides—is determined using suitable standards.
The results are expressed as percentages of the radioactivity of the total lipids neosynthesized and deposited on the TLC.

[3] = percentage of the radiolabeled total lipids applied onto the TLC, mean of 4 disks, 18 hours
[4] = percentage of the radiolabeled total lipids applied onto the TLC, single disks, 18 hours

With “EGF: epidermal growth factor obtained from R&D Systems, reference product tested at 10 ng/ml” the “neosynthesis of the total epidermal lipids, percentage of the control group” value ([1]; topical 10 mg/cm2, EGF 10 ng/ml) was 122%, the “neosynthesis of the total epidermal lipids, mean” value ([1]; mean of 4 disks, topical 10 mg/cm2, EGF 10 ng/ml) was 4080.02 cpm/mg of epidermis and the “neosynthesis of the total epidermal lipids, individual skin disk” value ([1]; single disks of quadruplicate, compositions and lactic acid undiluted 10 mg/cm2 topical, EGF 10 ng/ml in medium) was 3104.63 cpm/mg of epidermis and 5043.66 cpm/mg of epidermis and 3606.76 cpm/mg of epidermis and 4565.02 cpm/mg of epidermis. For the same substance, the “neosynthesis of ceramide 1, percentage of the control group” value ([2]; 18 hours) was 120%, the “neosynthesis of ceramide 2, percentage of the control group” value ([2]; 18 hours) was 155% and the “neosynthesis of cerebrosides, percentage of the control group” value ([2]; 18 hours) was 125%. For the same substance, the “neosynthesis of cholesterol, percentage of the control group” value ([2]; 18 hours) was 128%, the “neosynthesis of cholesteryl sulfate, percentage of the control group” value ([2]; 18 hours) was 54% and the “neosynthesis of polar lipids, percentage of the control group” value ([2]; 18 hours) was 119%. For the same substance, the “neosynthesis of ceramide 1, mean” value [2, 3] was 2.72%, the “neosynthesis of ceramide 2, mean” value [2, 3] was 3.00* % and the “neosynthesis of cerebrosides, mean” value [2, 3] was 3.87%. The “neosynthesis of cholesteryl sulfate, mean” value [2, 3] was 3.00* %, the “neosynthesis of polar lipids, mean” value [2, 3] was 38.23% and the “neosynthesis of tri- + diglycerides, mean” value [2, 3] was 45.10%. For the same substance, the “neosynthesis of ceramide 1, individual skin disk” value [2, 4] was 2.02% and 1.41% and 3.41% and 4.02%, the “neosynthesis of ceramide 2, individual skin disk” value [2, 4] was 3.81% and 2.38% and 2.74% and 3.05% and the “neosynthesis of cerebrosides, individual skin disk” value [2, 4] was 2.87% and 3.82% and 4.77% and 4.02%. For the same substance, the “neosynthesis of cholesterol, individual skin disk” value [2, 4] was 7.07% and 9.46% and 7.86% and 9.99%, the “neosynthesis of cholesteryl sulfate, individual skin disk” value [2, 4] was 2.31% and 3.69% and 3.44% and 2.57% and the “neosynthesis of polar lipids, individual skin disk” value [2, 4] was 57.27% and 34.42% and 27.69% and 33.53%. For the same substance, the “neosynthesis of tri- + diglycerides, individual skin disk” value [2, 4] was 42.67% and 44.82% and 50.08% and 42.83%, the “increase of the neosynthesis of ceramide 2” value ([2]; versus control) was 55% and the “reduction of the neosynthesis of cholesteryl sulfate” value ([2]; versus control) was 46%.
